Results reported in PMC8424217 (The Journal of Biological Chemistry, 2021).
Peptide text beside a SMILES is read from it. * marks the point of attachment. Palmitoyl = CCCCCCCCCCCCCCCC(=O)*

Tests used:
[1] = molecular target: T1, hUT (Homo sapiens, UniProt Q9UKP6); assay: Gi activation, BRET biosensor, HEK 293-hUT cells; type: cell-based; parameters: expressed in transfected cells; details: for EC50: HEK 293-hUT, BRET, mean ± SEM, n = 3–5, read-out: Gi activation pEC50 (converted)
T1 sequence (Q9UKP6 1-389): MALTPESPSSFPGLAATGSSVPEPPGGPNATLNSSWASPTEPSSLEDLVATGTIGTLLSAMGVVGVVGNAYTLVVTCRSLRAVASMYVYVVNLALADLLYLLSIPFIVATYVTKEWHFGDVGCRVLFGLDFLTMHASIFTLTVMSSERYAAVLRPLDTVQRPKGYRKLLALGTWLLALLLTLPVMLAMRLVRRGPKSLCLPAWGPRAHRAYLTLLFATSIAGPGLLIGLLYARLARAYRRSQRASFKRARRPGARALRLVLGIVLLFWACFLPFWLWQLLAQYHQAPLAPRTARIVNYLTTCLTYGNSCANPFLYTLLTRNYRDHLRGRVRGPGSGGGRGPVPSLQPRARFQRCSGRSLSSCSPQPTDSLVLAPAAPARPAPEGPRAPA

[2] = molecular target: T1, hUT; assay: IP1 production, IP-One terbium immunoassay, CHO-hUT cells; type: cell-based; parameters: expressed in transfected cells; host or cells: CHO-K1 cells stably expressing hUT (gift from H. Vaudry and C. Dubessy, University of Rouen); details: for IP1 production efficacy at 10^−5 M: 40 min, normalized to the hUII maximum effect; for EC50: 40 min incubation at 37 °C, mean ± SEM of at least three independent experiments in triplicate, read-out: IP1 production pEC50 (converted)
Experimental: Figure 3 IP1production (A and B) and ERK1/2phosphorylation (C and D) kinetics and concentration dependence following hUT activation. IP1 production was evaluated using the IP-One terbium immunoassay kits while ERK1/2 phosphorylation was measured by western blot in CHO-K1 cells stably expressing hUT. […] Each curve represents the mean ± SEM of at least three independent experiments performed in triplicate.
This assay, performed with the IP-One terbium immunoassay kits from Cisbio, was used according to the manufacturer recommendation and as previously described ([43]). Briefly, CHO-hUT cells were grown in 10-cm dishes for 24 h. The cells were then starved without serum. The next day, cells were washed once with PBS and collected in PBS containing 20 mM EDTA. For the assay, 80,000 cells per well (96-well plate) were used. […] IP1-d2 and anti-IP1-cryptate were added for an additional 2 h at room temperature. Plates were read on a Flexstation 3 microplate reader.

[3] = molecular target: T2, rat thoracic aorta rings (Rattus norvegicus, UniProt P49684); assay: Rat aortic ring contraction (agonist); details: for contraction at 10 μM: n = 5; for contraction pEC50: n = 22 (hUII, URP), n = 5 (pepducins)
T2 sequence (P49684 1-386): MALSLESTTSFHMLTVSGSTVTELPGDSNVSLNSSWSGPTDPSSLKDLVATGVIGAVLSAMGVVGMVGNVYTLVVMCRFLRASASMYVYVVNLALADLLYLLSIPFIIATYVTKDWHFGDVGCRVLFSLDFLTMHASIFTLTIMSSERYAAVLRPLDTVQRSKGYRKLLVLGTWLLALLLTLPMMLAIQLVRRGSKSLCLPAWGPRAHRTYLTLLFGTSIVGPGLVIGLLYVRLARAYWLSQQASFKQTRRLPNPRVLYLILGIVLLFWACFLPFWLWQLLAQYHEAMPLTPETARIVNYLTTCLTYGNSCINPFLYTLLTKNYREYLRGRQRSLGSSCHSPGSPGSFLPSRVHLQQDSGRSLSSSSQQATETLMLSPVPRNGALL
Experimental: (§1) Each replicate (n) was conducted on tissue obtained from at least three different animals. Data represent mean ± SEM.
(§2) Adult male Sprague-Dawley rats (Charles-River) weighing 250–300 g were housed in cages under controlled illumination (12:12 h light–dark cycle), humidity, and temperature (21–23 °C) and had free access to tap water and rat chow. All experimental procedures were performed in accordance with regulations and ethical guidelines from the Canadian Council for the Care of Laboratory Animals and received approvals of the institutional animal care and use committee of the Institut National de la Recherche Scientifique—Centre Armand-Frappier Santé Biotechnologie. As previously described ([17], [18]), the thoracic aorta was cleared of surrounding tissue and then excised from the aortic arch to the diaphragm. Conjunctive tissues were next removed from the thoracic aorta and the vessels were divided into five rings of 4 mm. The endothelium of each aortic ring was removed by gently rubbing the vessel intimal surface. Aortic rings were then placed in a 5 ml organ bath filled with oxygenated normal Krebs–Henseleit buffer. Eighty microliters of a 2.5 M potassium chloride solution (40 mM final concentration) was used to evaluate maximal contractile responses of each vessel. […] Cumulative concentration–response curves to synthetic peptides were obtained by increasing the concentration of each peptide in the remaining organ chambers (10^−11–10^−5 M).

[4] = molecular target: T2, rat thoracic aorta rings; assay: Modulation of hUII-mediated rat aortic ring contraction; details: for Emax: read-out: hUII Emax after pepducin pretreatment
Experimental: as §1, §2

[5] = system: rat neonatal cardiac fibroblasts; assay: Rat cardiac neonatal fibroblast proliferation, high content imaging; type: cell-based; details: 10^−6 M, 24 h, three independent experiments in triplicate
Excerpt: Each bar corresponds to the mean ± SEM obtained from three independent experiments conducted in triplicate.
Neonatal cardiac rat fibroblasts, endogenously expressing UT ([82]), were obtained from 1–3-day-old Sprague-Dawley pups as previously reported ([83]). Briefly, hearts obtained from neonatal rats were enzyme-digested and after centrifugation, cells were preplated to separate cardiomyocytes from fibroblasts. As reported, the adherent nonmyocyte fractions correspond predominantly to fibroblasts while the supernatants largely contain the cardiomyocytes. After several washes, attached fibroblasts were trypsinized and then cultured at 37 °C in 96-well plate (6000 cells per well) in low glucose-DMEM supplemented with 7% FBS, 100 units/ml of penicillin, and 100 μg/ml of streptomycin. After 48 h, cells were washed twice with low glucose-DMEM, and starved for 12 h in this medium. […] Cells are incubated with primary anti-smooth muscle α-actin antibody (1/500) in 10% horse serum/PBS overnight at 4 °C and later with secondary anti-rabbit Alexa Fluor 488 (1/1000) for 1 h at RT. Cell staining was performed using cell mask (1 μg mL^−1) in PBS for 30 min at room temperature and with Hoechst dye in PBS (1 μg/ml) for 10 min. Analysis was performed on an Opera Phoenix High Content Imaging System with a 20× water objective.

[6] = percentage of contraction induced by 40 mM KCl

Row | SMILES | Emax [1] [%] | EC50 [1] [nM] | IP1 production efficacy at 10^−5 M ([2]; CHO-hUT) | EC50 ([2]; CHO-hUT) [nM] | contraction at 10 μM [3, 6] [% @ 10 μM] | contraction pEC50 ([3]; mean ± SEM) | Emax [4] [%] | rat neonatal cardiac fibroblast proliferation [5] | Emax at 1 µM [1] [%] | Emax [2] [%] | time to plateau of IP1 production ([2]; CHO-hUT, time course) [min] | Emax ([3]; percentage of contraction induced by 40 mM KCl, mean ± SEM, n = 22) [%] | hUII-mediated contraction pEC50, control (no pretreatment) ([4]; rat aortic rings, hUII alone, mean ± SEM, n = 19) | shift of hUII / URP concentration–response curve ([4]; rat aortic rings, pepducin 10^−6 M pretreatment)
1 | CCCCCCCCCCCCCCCC(=O)N[C@@H](Cc1c[nH]c2ccccc12)C(=O)N[C@@H](CC(C)C)C(=O)N[C@@H](CO)C(=O)N[C@@H](CCC(N)=O)C(=O)N[C@@H](CCCNC(=N)N)C(=O)N[C@@H](C)C(=O)N[C@@H](CO)C(=O)N[C@@H](Cc1ccccc1)C(=O)N[C@@H](CCCCN)C(=O)N[C@@H](CCCNC(=N)N)C(=O)N[C@@H](C)C(=O)N[C@@H](CCCNC(=N)N)C(=O)N[C@@H](CCCNC(=N)N)C(N)=O [[Trp^1, Leu^2]hUT-Pep3] (Palmitoyl-WLSQRASFKRARR-NH2) | 97 ± 2 | 0.0407 | ~60% | > 1000 | 16 | <5 | 35 ± 6 | proliferative action in rat neonatal cardiac fibroblasts similar to what was observed with hUII | – | – | – | – | – | –
2 | CC(C)[C@H](NC(=O)[C@@H]1CSSC[C@H](NC(=O)[C@H](CC(=O)O)NC(=O)[C@@H]2CCCN2C(=O)[C@@H](NC(=O)[C@@H](N)CCC(=O)O)[C@@H](C)O)C(=O)N[C@@H](Cc2ccccc2)C(=O)N[C@@H](Cc2c[nH]c3ccccc23)C(=O)N[C@@H](CCCCN)C(=O)N[C@@H](Cc2ccc(O)cc2)C(=O)N1)C(=O)O [hUII, urotensin II, reference compound] | – | – | – | – | – | 8.64 ± 0.09 | – | proliferative action in rat neonatal cardiac fibroblasts similar to what was observed with hUII | 93 ± 2 | 97 ± 1 | 40 | 102 ± 3 | 8.69 ± 0.08 | –
3 | CCCCCCCCCCCCCCCC(=O)N[C@@H](CCCNC(=N)N)C(=O)N1CCC[C@H]1C(=O)N[C@@H](CC(C)C)C(=O)N[C@@H](CC(=O)O)C(=O)N[C@H](C(=O)N[C@H](C(=O)N[C@@H](CCC(N)=O)C(=O)N[C@@H](CCCNC(=N)N)C(=O)N1CCC[C@H]1C(=O)N[C@@H](CCCCN)C(=O)NCC(=O)N[C@@H](Cc1ccc(O)cc1)C(N)=O)C(C)C)[C@@H](C)O [hUT-Pep2] (Palmitoyl-RPLDTVQRPKGY-NH2) | 96 ± 2 | 0.0813 | around 35% | > 1000 | 7 | <5 | 86 ± 3 | proliferative action in rat neonatal cardiac fibroblasts similar to what was observed with hUII | – | – | – | – | – | significant rightward shift in the concentration–response curve of hUII but not URP
